# Assay results reported in patent US20030092770A1, “Combination therapy for treatment of depression” (priority 2002, published 2003).
# Test system: mouse
# Experiment: Forced Swim Test (FST) in the mouse
# Type: in vivo
# Method: The duration of immobility during the last four minutes of the six minute test period is scored. A mouse is recorded as immobile when floating motionless or making only those movements necessary to keep its head above water.
# An augmentation of action would be reflected by a reduction in immobility that is greater than the arithimetic sum of the effect of each agent alone. […] Standard statistical tests can be used to determine if this difference is significant. The same general strategy can be applied to the forced swim test as carried out in rats (below) as well as the tail suspension test, also described below.
smiles,measurement,setting,value
CC(CNS(=O)(=O)C(C)C)c1ccc(-c2ccsc2)cc1 (stereo not shown) [Example 392098],minimum effective dose (MED) in the Forced Swim Test,"392098 alone, i.p., mice",0.5 mg/kg
same,immobility of the mouse in the Forced Swim Test,392098 at a dose as low as 25 micrograms/kg combined with a subeffective dose of imipramine (5 mg/kg),statistically significant reduction in immobility
same,effect in the Forced Swim Test,"392098 by itself, low doses (0.025-0.1 mg/kg), mice",no effect
same,shift in the dose response curve of 392098,"administered in combination with a subeffective dose of imipramine, Forced Swim Test, mice",at least 20 fold
